The record followed here is US10501518B2 (priority 2013, dated 2019).

Structures are written as SMILES. Entries after “also recorded” stand apart in the source; their conditions may differ. Like-named read-outs stand apart in the source and are kept apart here.

The IC50 is the point on the concentration scale where inhibition reaches its midpoint.

One data set has as its target T1, R^0 form of rat PTHR-1 (Rattus norvegicus, UniProt P25961).
T1 construct: expressed in transfected cells; host or cells: COS-7
T1 sequence (P25961 27-591): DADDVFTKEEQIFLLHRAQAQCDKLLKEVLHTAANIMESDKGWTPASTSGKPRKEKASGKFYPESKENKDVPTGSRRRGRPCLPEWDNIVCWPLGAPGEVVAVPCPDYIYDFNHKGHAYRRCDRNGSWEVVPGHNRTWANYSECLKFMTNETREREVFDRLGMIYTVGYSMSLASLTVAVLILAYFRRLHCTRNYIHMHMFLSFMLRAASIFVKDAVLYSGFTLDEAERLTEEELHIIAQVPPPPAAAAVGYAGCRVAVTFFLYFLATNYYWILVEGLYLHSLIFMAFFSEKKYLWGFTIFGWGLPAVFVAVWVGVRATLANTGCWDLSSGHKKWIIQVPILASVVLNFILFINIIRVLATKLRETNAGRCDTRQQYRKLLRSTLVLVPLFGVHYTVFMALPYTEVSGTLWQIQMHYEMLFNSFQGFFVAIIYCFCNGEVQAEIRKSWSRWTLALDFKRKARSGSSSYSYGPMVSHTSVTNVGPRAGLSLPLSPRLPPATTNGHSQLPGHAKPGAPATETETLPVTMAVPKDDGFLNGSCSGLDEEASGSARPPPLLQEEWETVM
The data set can be described thus: Radio-ligand competition binding to R^0 form of rat PTHR-1. The settings on record: for R^0/RG: ratio of R^0 to RG IC50, rat PTHR-1; for affinity for the R^0 state of rPTHR-1, in words: compared with PTH(1-34). An excerpt: (§1) Data are means (±SEM) of n≥4 experiments, each performed in duplicate.

The target of a further data set is T2, rPTHR-1 (Rattus norvegicus, UniProt P25961).
T2 construct: expressed in transfected cells
T2 sequence (P25961 27-591): T1 sequence (P25961 27-591)
The data set can be described thus: Washout assay of cAMP response in GR-35 cells. The settings on record: for AUC-on / AUC-washout / AUC Ratio: Table 11; for AUC-on: luminescence AUC in the 14 minutes before washout, PTH(1-34), D6, M-PTH(1-34) 0.3 nM, B5 3 nM; for AUC-washout: luminescence AUC in the 120 minutes following washout; for AUC Ratio: ratio of AUC-washout to AUC-on; for cAMP response following washout, in words: rPTHR-1-expressing cells, relative to PTH(1-34). It is filed as cell-based. As to the method: FIGS. 11A and 11B present the results of rPTHR-1 washout experiments. Assays of cAMP accumulation were performed using HEK-293-derived cell lines stably transfected to express the luciferase-based cAMP GloSensor™-brand protein along with WT-rPTHR-1 (GR-35 cells). Data are means (±SEM) of n=3 (M-PTH) or n=5 experiments, each performed in quadruplicate. […] Ligand was applied and luminescence was recorded for 14 minutes thereafter. FIG. 11B depicts data for the accumulation of cAMP following ligand wash-out in cells expressing the rPTHR-1. The cells from FIG. 11A were removed from the plate reader at the end of the 14-min “ligand-on” phase, rinsed twice to remove unbound ligand, treated with fresh medium containing luciferin, and luminescence was again recorded for an additional 120 min of “wash-out.” Luminescence was recorded using a PerkinElmer Envision plate reader; cells were preloaded with luciferin for 30 min before ligand addition.
HEK293 cell monolayers expressing rat PTHR-1 (GR35 cells) were treated with ligand in for 14 minutes. This buffer was then discarded, and the cell monolayer was rinsed (2×). Buffer containing luciferin was introduced for 120 minutes. Luminescence response was recorded before and after washout, with luminescence readings recorded every 2 minutes. The area under the curve (AUC) for luminescence response curve was determined using GraphPad Prism. See […] for a graphs depicting the average of n=3 (M-PTH) or n=5 washout experiments. See Table 11 for a description of composite data from n=3 or 5 washout experiments.
Data were processed by using the Microsoft Excel and GraphPad Prism 4.0 software packages. Data from binding and cAMP dose-response assays were analyzed using a sigmoidal dose-response model with variable slope. Washout responses were assessed by quantifying the area under the luminescence response curve (AUC) following washout. Post-washout AUC was normalized by dividing the post-washout AUC by the pre-washout AUC. Paired data sets were statistically compared by using Student's t test (two-tailed) assuming unequal variances for the two sets.

The target of the next data set is T3, RG form of rat PTHR-1 (Rattus norvegicus, UniProt P25961).
T3 construct: expressed in transfected cells; host or cells: COS-7
T3 sequence (P25961 27-591): T1 sequence (P25961 27-591)
The data set can be described thus: Radio-ligand competition binding to RG form of rat PTHR-1.
From the text: as §1

Data set [1] is described as follows: In vivo pharmacokinetics: peptide content of mouse plasma by cAMP GloSensor assay. Conditions: mice, subcutaneous injection, 20 nmol/kg. The method, then:
Compound concentrations were determined by submitting plasma to a cAMP GloSensor assay, quantification of luminescence readout, and conversion to peptide concentration via standard curve. […] See also FIGS. 12A, 12B and 12C.
FIG. 12 B is a magnification of FIG. 12A to highlight the data from early time points. FIG. 12 C is a dose-response curve used to convert the raw luminescence time course found in FIG. 12A to the peptide concentration time course found in FIG. 3B. This curve was generated from a single assay run immediately before assessing the raw luminescence time course.
Blood was withdrawn just prior to injection (t=0) or at times thereafter. Tail vein blood was collected and treated with protease inhibitors (aprotinin, leupeptin, EDTA), centrifuged to remove blood cells, mixed with cAMP response assay buffer, and administered to GP2.3 cells. The raw luminescence readouts recorded in this assay were converted to blood peptide concentrations through use of a standard curve relating luminescence response to known peptide concentrations under identical assay conditions.

A further data set deals with T4, RG form of human PTHR-1 (Homo sapiens, UniProt Q03431).
T4 construct: expressed in transfected cells; host or cells: COS-7
T4 sequence (Q03431 27-593): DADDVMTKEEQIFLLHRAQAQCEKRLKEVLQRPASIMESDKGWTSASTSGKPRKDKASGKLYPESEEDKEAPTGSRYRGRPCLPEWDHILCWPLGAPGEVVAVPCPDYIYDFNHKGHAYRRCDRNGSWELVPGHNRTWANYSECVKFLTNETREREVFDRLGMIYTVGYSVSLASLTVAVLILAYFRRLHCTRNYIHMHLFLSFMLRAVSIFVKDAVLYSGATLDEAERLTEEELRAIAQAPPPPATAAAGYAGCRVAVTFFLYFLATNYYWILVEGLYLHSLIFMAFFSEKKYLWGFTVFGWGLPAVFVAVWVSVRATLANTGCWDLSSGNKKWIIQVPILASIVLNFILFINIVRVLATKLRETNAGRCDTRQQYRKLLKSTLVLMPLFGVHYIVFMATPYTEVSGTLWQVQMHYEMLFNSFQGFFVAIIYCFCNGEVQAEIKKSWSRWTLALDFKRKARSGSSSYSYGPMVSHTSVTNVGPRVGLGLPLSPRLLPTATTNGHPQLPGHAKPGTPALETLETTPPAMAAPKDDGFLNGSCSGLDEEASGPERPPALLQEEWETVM
The data set can be described thus: Radio-ligand competition binding to RG form of human PTHR-1 (COS-7 membranes, 125I-M-PTH(1-15) tracer, high affinity Gαs mutant).
From the text: as §1

The mark [2] stands for this setting: Table 2, read-out: R^0 IC50, nM, Binding (rPTHR-1).
Setting [3] is: Table 5, rat PTHR-1, mean ± SEM, read-out: R^0 -log (IC50) (converted).
Where [4] appears, read: Table 2, read-out: RG IC50, nM, Binding (rPTHR-1).

Turning to `CC[C@H](C)[C@H](NC(=O)[C@H](CCC(=O)O)NC(=O)[C@H](CO)NC(=O)[C@@H](NC(=O)[C@@H](N)CO)C(C)C)C(=O)N[C@@H](CCC(N)=O)C(=O)N[C@@H](CC(C)C)C(=O)N[C@@H](CCSC)C(=O)N[C@@H](Cc1c[nH]cn1)C(=O)N[C@@H](CC(N)=O)C(=O)N[C@@H](CC(C)C)C(=O)NCC(=O)N[C@@H](CCCCN)C(=O)N[C@@H](Cc1c[nH]cn1)C(=O)N[C@@H](CC(C)C)C(=O)N[C@@H](CC(N)=O)CC(=O)N[C@@H](CO)C(=O)N[C@@H](CCSC)C(=O)N[C@@H](CCC(=O)O)C(=O)N[C@@H](CCCNC(=N)N)CC(=O)N[C@H](C(=O)N[C@@H](CCC(=O)O)C(=O)N[C@@H](Cc1c[nH]c2ccccc12)C(=O)N[C@H](CC(=O)N[C@@H](CCCNC(=N)N)C(=O)N[C@@H](CCCCN)C(=O)N[C@@H](CCCCN)C(=O)N[C@H](CC(=O)N[C@@H](CCC(N)=O)C(=O)N[C@@H](CC(=O)O)C(=O)N[C@H](C(=O)N[C@@H](CCC(N)=O)CC(=O)N[C@@H](CC(N)=O)C(=O)N[C@@H](Cc1ccccc1)C(N)=O)C(C)C)CC(C)C)CC(C)C)C(C)C` [B5], the IC50 on R^0 form of rat PTHR-1 (setting [2]) is 65 nM; at R^0 form of rat PTHR-1 (setting [3]), 66.1 nM; at RG form of rat PTHR-1 (setting [4]), 4.2 nM; at RG form of rat PTHR-1 (Table 5, rat PTHR-1, mean ± SEM, read-out: RG -log (IC50) (converted)), 4.27 nM; on RG form of human PTHR-1 (Table 1, 125I-M-PTH(1-15) tracer, Gαs mutant, read-out: RG IC50, nM, Binding (hPTHR-1)), 0.086 nM. Further, at R^0 form of rat PTHR-1 (Table 5), the “R^0/RG” value is reported as 15. Moreover, the “affinity for the R^0 state of rPTHR-1, in words” value at R^0 form of rat PTHR-1 is reported as “significantly weaker affinity”. Further, the AUC-on at rPTHR-1 is reported as 130,000 ± 50,000. On rPTHR-1, the AUC-washout is given as 84,000 ± 23,000. Also, the “AUC Ratio” value at rPTHR-1 was 0.80 ± 0.16. Moreover, the “cAMP response following washout, in words” value at rPTHR-1 was “short-lived cAMP response”. The “level / persistence in the mouse bloodstream” value (from here on “level / persistence”) in data set [1] is “prolonged bioavailability”.
For the compound `CC[C@H](C)[C@H](NC(=O)[C@H](CCC(=O)O)NC(=O)[C@H](CO)NC(=O)[C@@H](NC(=O)[C@@H](N)CO)C(C)C)C(=O)N[C@@H](CCC(N)=O)C(=O)N[C@@H](CC(C)C)C(=O)N[C@@H](CCSC)C(=O)N[C@@H](Cc1cnc[nH]1)C(=O)N[C@@H](CC(N)=O)C(=O)N[C@@H](CC(C)C)C(=O)NCC(=O)N[C@@H](CCCCN)C(=O)N[C@H](CC(=O)N[C@@H](CC(C)C)C(=O)N[C@@H](CC(N)=O)C(=O)N[C@@H](CO)C(=O)N[C@@H](CCSC)CC(=O)N[C@@H](CCC(=O)O)C(=O)N[C@@H](CCCNC(=N)N)C(=O)N[C@H](C(=O)N[C@@H](CCC(=O)O)CC(=O)N[C@@H](Cc1c[nH]c2ccccc12)C(=O)N[C@@H](CC(C)C)C(=O)N[C@@H](CCCNC(=N)N)C(=O)N[C@@H](CCCCN)CC(=O)N[C@@H](CCCCN)C(=O)N[C@@H](CC(C)C)C(=O)N[C@@H](CCC(N)=O)C(=O)N[C@@H](CC(=O)O)CC(=O)N[C@H](C(=O)N[C@@H](Cc1cnc[nH]1)C(=O)N[C@@H](CC(N)=O)C(=O)N[C@H](CC(N)=O)Cc1ccccc1)C(C)C)C(C)C)Cc1c[nH]c2ccccc12` [D6], at R^0 form of rat PTHR-1 (setting [2]), the IC50 was found to be 6.1 nM. The IC50 on R^0 form of rat PTHR-1 (setting [3]) is 6.03 nM. Further, the “R^0/RG” value on R^0 form of rat PTHR-1 (Table 5) worked out at 8. Moreover, the “affinity for the R^0 state of rPTHR-1, in words” value at R^0 form of rat PTHR-1 is given as “somewhat weaker affinity”. For the same compound, at rPTHR-1, the AUC-on is 100,000 ± 36,000; the AUC-washout is on record as 130,000 ± 37,000; the “AUC Ratio” value is 1.50 ± 0.35; the “cAMP response following washout, in words” value is “comparable to that of PTH(1-34)”. For the same compound, at RG form of rat PTHR-1 (setting [4]), the IC50 came to 0.81 nM. Besides, the “level / persistence” value in data set [1] is “persists even longer in the bloodstream than does B5; also recorded: persists much longer in the mouse bloodstream than does PTH(1-34)”. On RG form of human PTHR-1, this compound had an IC50 of 0.065 nM.
Take `CC[C@H](C)[C@H](NC(=O)[C@H](CCC(=O)O)NC(=O)[C@H](CO)NC(=O)[C@@H](NC(=O)[C@@H](N)CO)C(C)C)C(=O)N[C@@H](CCC(N)=O)C(=O)N[C@@H](CC(C)C)C(=O)N[C@@H](CCSC)C(=O)N[C@@H](Cc1cnc[nH]1)C(=O)N[C@@H](CC(N)=O)C(=O)N[C@@H](CC(C)C)C(=O)NCC(=O)N[C@@H](CCCCN)C(=O)N[C@@H](Cc1cnc[nH]1)C(=O)N[C@@H](CC(C)C)C(=O)N[C@@H](CC(N)=O)C(=O)N[C@@H](CO)C(=O)N[C@@H](CCSC)C(=O)N[C@@H](CCC(=O)O)C(=O)N[C@@H](CCCN=C(N)N)C(=O)N[C@H](C(=O)N[C@@H](CCC(=O)O)C(=O)N[C@@H](Cc1c[nH]c2ccccc12)C(=O)N[C@@H](CC(C)C)C(=O)N[C@@H](CCCN=C(N)N)C(=O)N[C@@H](CCCCN)C(=O)N[C@@H](CCCCN)C(=O)N[C@@H](CC(C)C)C(=O)N[C@@H](CCC(N)=O)C(=O)N[C@@H](CC(=O)O)C(=O)N[C@H](C(=O)N[C@@H](Cc1cnc[nH]1)C(=O)N[C@@H](CC(N)=O)C(=O)N[C@@H](Cc1ccccc1)C(=O)O)C(C)C)C(C)C` [PTH(1-34), reference compound]: on rPTHR-1, the AUC-on was 92,000 ± 34,000 and the AUC-washout was 100,000 ± 25,000. For the same compound, the “level / persistence” value in data set [1] is listed as “consistently lower than the level of B5”.
